Molecules are shown by their SMILES. Bridge positions count the residues as written; N and C are the ends. Peptide text beside a SMILES is read from it.

The test deals with T1, mouse GIRK1/4 (Mus musculus, UniProt P48545+P63250).
T1 construct: expressed in transfected cells; host or cells: 293T cells, transient calcium phosphate transfection, pCMV6 plasmid
T1 sequence (P63250 1-501): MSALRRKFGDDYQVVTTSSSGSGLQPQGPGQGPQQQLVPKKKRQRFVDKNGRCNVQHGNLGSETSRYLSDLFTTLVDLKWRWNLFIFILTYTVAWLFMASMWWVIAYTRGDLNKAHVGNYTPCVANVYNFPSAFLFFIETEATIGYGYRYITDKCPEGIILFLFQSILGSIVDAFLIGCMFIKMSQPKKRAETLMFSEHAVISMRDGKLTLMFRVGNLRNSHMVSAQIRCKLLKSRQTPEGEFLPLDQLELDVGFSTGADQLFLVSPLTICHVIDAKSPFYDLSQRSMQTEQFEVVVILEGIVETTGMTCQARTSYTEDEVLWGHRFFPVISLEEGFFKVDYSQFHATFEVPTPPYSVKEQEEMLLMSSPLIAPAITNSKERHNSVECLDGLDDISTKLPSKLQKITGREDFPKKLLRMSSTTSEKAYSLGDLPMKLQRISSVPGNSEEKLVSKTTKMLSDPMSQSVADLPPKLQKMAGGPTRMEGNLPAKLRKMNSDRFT
T1 sequence (P48545 1-419): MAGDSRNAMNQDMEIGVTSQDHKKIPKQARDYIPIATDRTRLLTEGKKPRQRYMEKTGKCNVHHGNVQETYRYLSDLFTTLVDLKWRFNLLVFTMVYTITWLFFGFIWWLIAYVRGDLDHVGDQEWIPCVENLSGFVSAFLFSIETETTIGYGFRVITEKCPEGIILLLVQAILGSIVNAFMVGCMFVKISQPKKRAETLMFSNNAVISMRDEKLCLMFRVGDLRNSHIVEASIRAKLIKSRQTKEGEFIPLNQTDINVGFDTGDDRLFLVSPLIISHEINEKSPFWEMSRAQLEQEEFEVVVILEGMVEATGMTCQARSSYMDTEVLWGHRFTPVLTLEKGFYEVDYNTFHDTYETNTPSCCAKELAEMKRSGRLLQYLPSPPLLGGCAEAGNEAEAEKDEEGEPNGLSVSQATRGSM
Kind of test: Whole-cell patch-clamp of GIRK1/4 in transfected 293T cells. Format: cell-based. The conditions noted are these: 293T cells transiently expressing mouse GIRK1/4, high K+ Tyrode solution (Fig 7); read-out: IC50, GIRK1/4 conductance. From the text: The cDNAs for rat ROMK and mouse GIRK1, 2, and 4 were generously donated by Drs Mikio Hayashi (Kansai Medical University) and David Weaver (Vanderbilt University). The ROMK channels were stably expressed by a cell line, 208–4, which was transduced with lentiviral vectors coexpressing the channel and green fluorescent protein (GFP) as described previously. The GIRK genes, cloned in a pCMV6 plasmid (Origene Technologies Inc, Rockville, MD), were transiently expressed in 293T cells with calcium phosphate transfection. GIRK channel currents were recorded 24 h after transfection.
Cells grown on small cover glasses (3 × 18 mm) were placed in a recording chamber. Whole-cell currents were recorded in Tyrode solution using an Axopatch 200B amplifier (Axon Instruments, Foster City, CA) at 25°C. Tyrode solution contained (in mM): NaCl 140, KCl 5.4, NaH2PO4 0.33, CaCl2 2, MgCl2 1, HEPES 5, and glucose 5.5 (pH 7.4 adjusted with NaOH). […] Whole-cell currents were recorded 60 sec after the peptide application and those from 100 to 300 msec of the step pulses were averaged. […] Whole-cell conductance was calculated as the slope of the current-voltage (I-V) relationship from -140 mV to -100 mV and normalized to the initial value (0 μM TPN), in which BaCl2-resistant current was subtracted and indicted as a percentage.
For orientation: Patch clamp records ionic current or voltage across a cell membrane.

For the molecule `CC[C@H](C)[C@@H]1NC(=O)[C@H](CCCNC(=N)N)NC(=O)[C@H](CCCNC(=N)N)NC(=O)[C@H](CC(N)=O)NC(=O)[C@@H]2CSSC[C@@H](C(=O)NCC(=O)N[C@@H](CCCCN)C(=O)N[C@@H](CCCCN)C(N)=O)NC(=O)[C@H](CCCCN)NC(=O)[C@H](CCCCN)NC(=O)[C@H](Cc3c[nH]c4ccccc34)NC(=O)[C@H](CSSC[C@H](NC(=O)[C@H](CC(C)C)NC(=O)[C@H](C)N)C(=O)N[C@@H](CC(N)=O)C(=O)N2)NC(=O)[C@H](CCC(N)=O)NC(=O)[C@H](Cc2c[nH]cn2)NC(=O)[C@@H]2CCCN2C(=O)[C@H]([C@@H](C)CC)NC1=O` [Peptide 2, TPN-RQ] (H-ALCNCNRRIIPHQCWKKCGKK-NH2; disulfide 3-14, 5-18), the IC50 was determined as 1250 nM.
